Data from the supplement of paper PMC11061612.

Experiments:
Experiment in all cases: Bliss excess, mean over the matrix (fraction); higher = more synergy
[1] = test system: BV-173 (Chronic Myelogenous Leukemia)
Summary of the method: (§1)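 Cell lines grown in DMEM/F12 or RPMI with 10% FBS were plated in 1536-well plates and held 24 hours at 37°C, 5% CO2 before 72 hours of exposure to two-drug dose matrices, with DMSO typically at 0.2%. CellTiter-Glo 2.0 luminescence gave viability, which was converted to inhibition. Vehicle wells were set to 0 and blank wells to 1. Combination Emax is the second-highest inhibition in the matrix, and Bliss excess is the observed combination effect minus the expected EA + EB − EA·EB, where EA and EB are the single-agent effects.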

[2] = test system: EW-18 (Ewing's Sarcoma)
Summary of the method: as §1

[3] = test system: EW-3 (Ewing's Sarcoma)
Summary of the method: as §1

[4] = test system: GI-1 (Glioblastoma)
Summary of the method: as §1

[5] = test system: HC-1 (Other Blood Carcinomas)
Summary of the method: as §1

[6] = test system: HSC-2 (Oral Cavity Carcinoma)
Summary of the method: as §1

[7] = test system: JHH-7 (Hepatocellular Carcinoma)
Summary of the method: as §1

[8] = test system: KP-2 (Pancreatic Carcinoma)
Summary of the method: as §1

[9] = test system: KYSE-150 (Esophageal Squamous Cell Carcinoma)
Summary of the method: as §1

[10] = test system: MFE-319 (Endometrial Carcinoma)
Summary of the method: as §1

[11] = test system: NCI-H1573 (Lung Adenocarcinoma)
Summary of the method: as §1

[12] = test system: NCI-H2347 (Lung Adenocarcinoma)
Summary of the method: as §1

[13] = test system: NCI-H513 (Other Solid Carcinomas)
Summary of the method: as §1

[14] = test system: NCI-N87 (Gastric Carcinoma)
Summary of the method: as §1

[15] = test system: NH-12 (Neuroblastoma)
Summary of the method: as §1

[16] = test system: OCUM-1 (Gastric Carcinoma)
Summary of the method: as §1

[17] = test system: PF-382 (T-Lymphoblastic Leukemia)
Summary of the method: as §1

[18] = test system: RPMI-7951 (Melanoma)
Summary of the method: as §1

[19] = test system: SCC-3 (B-Cell Non-Hodgkin's Lymphoma)
Summary of the method: as §1

[20] = test system: TGBC11TKB (Gastric Carcinoma)
Summary of the method: as §1

Compound: CC1(C)CCC(CN2CCN(c3ccc(C(=O)NS(=O)(=O)c4ccc(NCC5CCOCC5)c([N+](=O)[O-])c4)c(Oc4cnc5[nH]ccc5c4)c3)CC2)=C(c2ccc(Cl)cc2)C1 [Venetoclax] + Cc1cc2ncnn2cc1Nc1ncc2c(n1)n(C1CCOCC1)c(=O)n2C [AZD7648] (first compound max 1 µM, 7x7, partner max 10 µM)
- Bliss excess [1]: -0.0492
- Bliss excess [2]: 0.0188
- Bliss excess [3]: 0.0149
- Bliss excess [4]: 0.0369
- Bliss excess [5]: -0.02
- Bliss excess [6]: -0.0177
- Bliss excess [7]: -0.0446
- Bliss excess [8]: -0.0577
- Bliss excess [9]: -0.0509
- Bliss excess [10]: -0.0442
- Bliss excess [11]: -0.0242
- Bliss excess [12]: -0.0665
- Bliss excess [13]: -0.0321
- Bliss excess [14]: -0.0609
- Bliss excess [15]: -0.0072
- Bliss excess [16]: -0.0144
- Bliss excess [17]: -0.0134
- Bliss excess [18]: -0.0226
- Bliss excess [19]: -0.0016
- Bliss excess [20]: -0.0592

Compound: Cc1cc2ncnn2cc1Nc1ncc2c(n1)n(C1CCOCC1)c(=O)n2C [AZD7648] + C[C@@H]1COCCN1C2=NC(=NC(=C2)C3(CC3)[S@](=N)(=O)C)C4=C5C=CNC5=NC=C4 [AZD6738] (first compound max 10 µM, 7x7, partner max 10 µM)
- Bliss excess [1]: -0.0194
- Bliss excess [2]: -0.0133
- Bliss excess [3]: -0.0607
- Bliss excess [4]: 0.018
- Bliss excess [5]: -0.131
- Bliss excess [6]: 0.0627
- Bliss excess [7]: 0.0247
- Bliss excess [8]: 0.0004
- Bliss excess [9]: -0.0061
- Bliss excess [10]: 0.0546
- Bliss excess [11]: 0.0363
- Bliss excess [12]: -0.0451
- Bliss excess [13]: -0.0383
- Bliss excess [14]: 0.024
- Bliss excess [15]: -0.0035
- Bliss excess [16]: 0.009
- Bliss excess [17]: 0.0263
- Bliss excess [18]: 0.0028
- Bliss excess [19]: -0.0083
- Bliss excess [20]: 0.0009

Compound: Cn1cnc2c(F)c(Nc3ccc(Br)cc3Cl)c(C(=O)NOCCO)cc21 [Selumetinib] + C=CCn1c(=O)c2cnc(Nc3ccc(N4CCN(C)CC4)cc3)nc2n1-c1cccc(C(C)(C)O)n1 [AZD1775] (first compound max 10 µM, partner max 1 µM)
- Bliss excess [1]: -0.0026
- Bliss excess [2]: -0.147
- Bliss excess [3]: -0.0564
- Bliss excess [4]: -0.0387
- Bliss excess [5]: -0.0702
- Bliss excess [6]: -0.0366
- Bliss excess [7]: -0.0198
- Bliss excess [8]: 0.0088
- Bliss excess [9]: 0.0705
- Bliss excess [10]: -0.0715
- Bliss excess [11]: -0.0331
- Bliss excess [12]: -0.0164
- Bliss excess [13]: -0.0387
- Bliss excess [14]: 0.023
- Bliss excess [15]: -0.101
- Bliss excess [16]: -0.0137
- Bliss excess [17]: 0.0137
- Bliss excess [18]: -0.0482
- Bliss excess [19]: 0.0092
- Bliss excess [20]: -0.0163

Compound: CC1(C)CCC(CN2CCN(c3ccc(C(=O)NS(=O)(=O)c4ccc(NCC5CCOCC5)c([N+](=O)[O-])c4)c(Oc4cnc5[nH]ccc5c4)c3)CC2)=C(c2ccc(Cl)cc2)C1 [Venetoclax] + Cn1cnc2c(F)c(Nc3ccc(Br)cc3Cl)c(C(=O)NOCCO)cc21 [Selumetinib] (first compound max 1 µM, 7x7, partner max 3 µM)
- Bliss excess [1]: -0.0183
- Bliss excess [2]: -0.104
- Bliss excess [3]: -0.0413
- Bliss excess [4]: -0.0095
- Bliss excess [5]: 0.0509
- Bliss excess [6]: -0.0511
- Bliss excess [7]: -0.0442
- Bliss excess [8]: -0.0177
- Bliss excess [9]: -0.0102
- Bliss excess [10]: -0.0034
- Bliss excess [11]: -0.0431
- Bliss excess [12]: -0.012
- Bliss excess [13]: -0.0415
- Bliss excess [14]: -0.065
- Bliss excess [15]: 0.0918
- Bliss excess [16]: -0.0508
- Bliss excess [17]: -0.0038
- Bliss excess [18]: -0.049
- Bliss excess [19]: 0.028
- Bliss excess [20]: 0.0049

Compound: COc1nnc2ccc(N3CCC(c4ccc(OCCN5CCN(C)C(=O)[C@H]5C)cc4)CC3)nn12 [AZD5153] + Cc1c2c(nn1C)CSCc1cc(n(C)n1)CSc1cc(c3ccccc3c1)OCCCc1c(C(=O)O)n(C)c3c-2c(Cl)ccc13 [AZD5991] (first compound max 1 µM, 7x7, partner max 1 µM)
- Bliss excess [1]: 0.0184
- Bliss excess [2]: 0.0235
- Bliss excess [3]: 0.0114
- Bliss excess [4]: 0.0022
- Bliss excess [5]: 0.0424
- Bliss excess [6]: -0.0731
- Bliss excess [7]: -0.0306
- Bliss excess [8]: 0.0098
- Bliss excess [9]: -0.0732
- Bliss excess [10]: -0.0227
- Bliss excess [11]: 0.0475
- Bliss excess [12]: -0.0198
- Bliss excess [13]: -0.0287
- Bliss excess [14]: -0.0073
- Bliss excess [15]: -0.0206
- Bliss excess [16]: 0.0024
- Bliss excess [17]: 0.0145
- Bliss excess [18]: -0.0575
- Bliss excess [19]: 0.029
- Bliss excess [20]: -0.0666

Compound: CC(=O)c1c(C)c2cnc(Nc3ccc(N4CCNCC4)cn3)nc2n(C2CCCC2)c1=O [Palbociclib] + CC1(C)CCC(CN2CCN(c3ccc(C(=O)NS(=O)(=O)c4ccc(NCC5CCOCC5)c([N+](=O)[O-])c4)c(Oc4cnc5[nH]ccc5c4)c3)CC2)=C(c2ccc(Cl)cc2)C1 [Venetoclax] (first compound max 10 µM, 7x7, partner max 1 µM)
- Bliss excess [1]: 0.0021
- Bliss excess [2]: 0.0221
- Bliss excess [3]: 0.0792
- Bliss excess [4]: -0.0394
- Bliss excess [5]: 0.0552
- Bliss excess [6]: -0.0128
- Bliss excess [7]: -0.0474
- Bliss excess [8]: -0.0425
- Bliss excess [9]: -0.0225
- Bliss excess [10]: -0.0586
- Bliss excess [11]: 0.0244
- Bliss excess [12]: -0.0375
- Bliss excess [13]: -0.0574
- Bliss excess [14]: -0.0275
- Bliss excess [15]: 0.0627
- Bliss excess [16]: -0.0515
- Bliss excess [17]: 0.0031
- Bliss excess [18]: 0.0005
- Bliss excess [19]: 0.0411
- Bliss excess [20]: -0.0901

Compound: CN(C)CCCOc1ccc(-c2ccc3ncc4c(c3c2)n(C2CCOCC2)c(=O)n4C)cn1 [AZD0156] + C=CCn1c(=O)c2cnc(Nc3ccc(N4CCN(C)CC4)cc3)nc2n1-c1cccc(C(C)(C)O)n1 [AZD1775] (first compound max 1 µM, partner max 1 µM)
- Bliss excess [1]: 0.0116
- Bliss excess [2]: -0.0245
- Bliss excess [3]: 0.002
- Bliss excess [4]: -0.0207
- Bliss excess [5]: -0.0238
- Bliss excess [6]: -0.0507
- Bliss excess [7]: -0.0412
- Bliss excess [8]: -0.0331
- Bliss excess [9]: -0.0386
- Bliss excess [10]: -0.0706
- Bliss excess [11]: -0.0537
- Bliss excess [12]: -0.0627
- Bliss excess [13]: 0.001
- Bliss excess [14]: -0.0181
- Bliss excess [15]: -0.0406
- Bliss excess [16]: 0.0183
- Bliss excess [17]: -0.0121
- Bliss excess [18]: -0.0055
- Bliss excess [19]: -0.0162
- Bliss excess [20]: -0.0482
